32 compounds from ChEMBL document CHEMBL1268886, “Evaluation of amide replacements in CCR5 antagonists as a means to increase intrinsic permeability. Part 2: SAR optimization and pharmacokinetic profile of a homologous azacyle series” (Bioorg Med Chem Lett, 2010) can be followed below.

The structures appear in SMILES notation. Where only a bound is given, the exact number is not on record here.

Series [1] addresses C-C chemokine receptor type 5 (Homo sapiens, UniProt P51681). Kind of series: Inhibition of RANTES.
The test system of series [2] is Human immunodeficiency virus. Kind of series: Antiviral activity against HIV. The series is classed as functional, organism-based.
The nature of series [3]: (§1) Apparent permeability of the compound from apical to basolateral side in human Caco-2 cell membrane after 21 days. As to conditions: Caco-2, Papp.
Series [4] can be described thus: Cmax in rat at 10 mg/kg, po and 1 mg/kg, iv. Type of series: ADME, organism-based. The conditions noted are these: in vivo.
Series [5] concerns the target Voltage-gated inwardly rectifying potassium channel KCNH2 (Homo sapiens, UniProt Q12809). Kind of series: Inhibition of human ERG.
A short description of series [6]: Clearance in dog at 5 mg/kg, po and 1 mg/kg, iv. Type of series: ADME, organism-based, Canis lupus familiaris. The conditions noted are these: in vivo.
A short description of series [7]: Oral bioavailability in dog at 5 mg/kg, po and 1 mg/kg, iv. The series is classed as ADME, organism-based, Canis lupus familiaris. The conditions noted are these: in vivo.
Series [8] is described as follows: Metabolic stability in dog liver microsomes assessed as intrinsic clearance. Type of series: ADME, Canis lupus familiaris, Microsome. On the technique in general: Liver microsomes are a subcellular fraction often used to study metabolism.
Another series concerns Rattus norvegicus. Nature of the series: Clearance in rat at 10 mg/kg, po and 1 mg/kg, iv. The series is classed as ADME, organism-based. The conditions noted are these: in vivo.
A short description of series [9]: Metabolic stability in rat liver microsomes assessed as intrinsic clearance. The series is classed as ADME, Microsome.
Series [10] is described as follows: Half life in rat at 1 mg/kg, iv. Type of series: ADME, organism-based. More on the design: dose 1 mg/kg, route intravenous. As to conditions: in vivo.
Series [11] in a line: Half life in dog at 1 mg/kg, iv. As to conditions: in vivo. Set-up: dose 1 mg/kg, route intravenous. Type of series: ADME, organism-based, Canis lupus familiaris.
Series [12] is described as follows: Oral bioavailability in rat at 10 mg/kg, po and 1 mg/kg, iv. The conditions noted are these: in vivo. Type of series: ADME, organism-based.
The nature of series [13]: Metabolic stability in human liver microsomes assessed as intrinsic clearance. The series is classed as ADME, Microsome.
Series [14] can be described thus: Cmax in dog at 5 mg/kg, po and 1 mg/kg, iv. The conditions noted are these: in vivo. Type of series: ADME, organism-based, Canis lupus familiaris.
The test system of the next series is Caco-2. The series is described as §1. The conditions noted are these: caco-2.

Sequence of C-C chemokine receptor type 5 (P51681 whole entry): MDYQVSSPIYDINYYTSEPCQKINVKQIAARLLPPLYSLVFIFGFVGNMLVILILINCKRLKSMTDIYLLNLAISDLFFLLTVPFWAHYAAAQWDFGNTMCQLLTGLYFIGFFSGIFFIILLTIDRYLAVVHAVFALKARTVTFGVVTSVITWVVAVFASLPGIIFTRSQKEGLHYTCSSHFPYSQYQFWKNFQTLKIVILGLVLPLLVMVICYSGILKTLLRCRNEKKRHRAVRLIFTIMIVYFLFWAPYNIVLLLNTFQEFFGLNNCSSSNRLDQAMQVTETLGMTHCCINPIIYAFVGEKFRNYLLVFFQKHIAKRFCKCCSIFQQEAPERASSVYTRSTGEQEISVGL
Sequence of Voltage-gated inwardly rectifying potassium channel KCNH2 (Q12809 whole entry): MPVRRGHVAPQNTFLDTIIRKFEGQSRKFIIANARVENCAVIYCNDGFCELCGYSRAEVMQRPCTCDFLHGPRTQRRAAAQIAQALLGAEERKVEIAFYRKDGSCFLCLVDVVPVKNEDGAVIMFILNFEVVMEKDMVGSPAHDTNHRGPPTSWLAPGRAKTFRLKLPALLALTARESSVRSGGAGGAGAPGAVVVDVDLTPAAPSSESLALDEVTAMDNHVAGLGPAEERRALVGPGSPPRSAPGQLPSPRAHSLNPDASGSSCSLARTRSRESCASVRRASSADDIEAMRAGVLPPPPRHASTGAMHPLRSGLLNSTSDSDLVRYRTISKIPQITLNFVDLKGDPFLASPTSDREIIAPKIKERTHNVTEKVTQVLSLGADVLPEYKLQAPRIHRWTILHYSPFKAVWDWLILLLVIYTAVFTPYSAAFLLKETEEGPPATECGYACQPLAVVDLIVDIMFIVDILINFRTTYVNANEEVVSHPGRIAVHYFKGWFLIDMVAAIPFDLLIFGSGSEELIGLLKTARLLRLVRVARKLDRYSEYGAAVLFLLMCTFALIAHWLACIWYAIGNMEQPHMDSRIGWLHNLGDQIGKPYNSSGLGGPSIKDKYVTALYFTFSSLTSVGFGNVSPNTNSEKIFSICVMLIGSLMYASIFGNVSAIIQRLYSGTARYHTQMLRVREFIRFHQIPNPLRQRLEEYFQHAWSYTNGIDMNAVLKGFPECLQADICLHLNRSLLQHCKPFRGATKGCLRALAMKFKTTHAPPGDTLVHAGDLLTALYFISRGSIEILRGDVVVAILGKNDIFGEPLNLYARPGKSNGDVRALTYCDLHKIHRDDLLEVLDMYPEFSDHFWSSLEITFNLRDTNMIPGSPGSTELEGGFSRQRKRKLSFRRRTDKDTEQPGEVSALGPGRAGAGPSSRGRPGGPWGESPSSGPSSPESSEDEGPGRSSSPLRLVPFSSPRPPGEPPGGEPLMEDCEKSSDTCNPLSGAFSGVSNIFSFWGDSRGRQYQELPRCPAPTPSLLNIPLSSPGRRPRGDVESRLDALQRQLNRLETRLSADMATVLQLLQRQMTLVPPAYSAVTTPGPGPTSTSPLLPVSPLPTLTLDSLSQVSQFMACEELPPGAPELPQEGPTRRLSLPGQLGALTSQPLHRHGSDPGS

Take `Cc1ncnc(C)c1C(=O)N1C[C@H]2CN(CCC(c3ccccc3)C3CN(S(=O)(=O)C4CC4)C3)C[C@H]2C1` (stereo not given in full): the IC50 worked out at 40 nM in [1] and 103 nM in [2] (Human immunodeficiency virus 1).

As for `Cc1cc(=O)oc(C)c1C(=O)N1C[C@H]2CN(CCC(c3ccccc3)C3CCN(S(C)(=O)=O)CC3)C[C@H]2C1` (stereo not given in full), the IC50 in series [1] is 27 nM; in series [2] (Human immunodeficiency virus 1), 37 nM.

On to `Cc1ncnc(C)c1C(=O)N1C[C@H]2CN(CCC(c3ccccc3)C3CCN(S(C)(=O)=O)CC3)C[C@H]2C1` (stereo in doubt; 34), for which the IC50 in [1] amounted to 34 nM; in series [2] it was 43 nM. In addition, the Papp A→B in series [3] came out at 0.87 ×10⁻⁶ cm/s.

As to `CCC(=O)N1CCC(C(CCN2C[C@@H]3CN(C(=O)c4c(C)ncnc4C)C[C@@H]3C2)c2ccccc2)CC1` (stereo not given in full), in series [1], inhibition was half-maximal at 32 nM (IC50).

In the case of `CCS(=O)(=O)N1CCC(C(CCN2C[C@@H]3CN(C(=O)c4c(C)ncnc4C)C[C@@H]3C2)c2ccccc2)CC1` (stereo not given in full), the IC50 in series [1] was found to be 25 nM; in series [2] (Human immunodeficiency virus 1), 39 nM.

In the case of `Cc1ncnc(C)c1C(=O)N1C[C@H]2CN(CCC(c3cccc(F)c3)C3CCN(CC(F)F)CC3)C[C@H]2C1` (stereo not given in full), the IC50 turned out to be 35 nM in series [1] and 14 nM in series [2] (Human immunodeficiency virus 1).

In the case of `Cc1ncnc(C)c1C(=O)N1C[C@H]2CN(CCC(c3ccccc3)C3CCN(S(=O)(=O)C4CC4)CC3)C[C@H]2C1` (stereo not given in full), the IC50 came to 27 nM in [1] and 71 nM in series [2] (Human immunodeficiency virus 1).

`Cc1ncnc(C)c1C(=O)N1C[C@H]2CN(CCC(c3cccc(F)c3)C3CCN(S(C)(=O)=O)CC3)C[C@H]2C1` (stereo in doubt; 44) gave an IC50 in series [1] of more than 500 nM.

As for `Cc1ncnc(C)c1C(=O)N1C[C@H]2CN(CCC(c3ccccc3)C3CCN(CC(F)F)CC3)C[C@H]2C1` (stereo not given in full), the IC50 in series [1] is 27 nM; in [2] (Human immunodeficiency virus 1), 55 nM.

Consider `Cc1ncnc(C)c1C(=O)N1C[C@H]2CN(CCC(c3ccccc3)C3CCN(CC(F)(F)F)CC3)C[C@H]2C1` (stereo not given in full), for which the IC50 is 17 nM in series [1] and 64 nM in series [2] (Human immunodeficiency virus 1).

Regarding `Cc1ncnc(C)c1C(=O)N1C[C@H]2CN(CCC(c3ccccc3)C3CCN(C(=O)NC(C)C)CC3)C[C@H]2C1` (stereo not given in full), in series [1], the half-inhibitory concentration (IC50) is more than 500 nM.

With `Cc1ncnc(C)c1C(=O)N1C[C@H]2CN(CCC(c3ccccc3)C3CCN(S(=O)(=O)CC(F)(F)F)CC3)C[C@H]2C1` (stereo not given in full), the IC50 is 48 nM in series [1] and 207 nM in series [2] (Human immunodeficiency virus 1).

As for `Cc1ncnc(C)c1C(=O)N1C[C@H]2CN(CCC(c3cccc(F)c3)C3CCN(S(C)(=O)=O)CC3)C[C@H]2C1` (stereo in doubt; 43), the Cmax came to 110 ng/mL in [4] and 1300 ng/mL in series [14]. In series [5], this compound came in with an IC20 of 15.4 µM. For the same compound, the clearance was 31 mL/min/kg in series [6], 18 µL/min/mg in series [8] and 40 mL/min/kg in the series on Rattus norvegicus. For the same compound, the bioavailability was 96% in series [7] and 6.6% in series [12]. For the same compound, the 50% inhibitory concentration (IC50) in [1] was determined as 32 nM; in series [2], 17 nM. Also, the microsomal CLint stood at 40 µL/min/mg in [9] and 60 µL/min/mg in [13]. Further, the half-life in series [10] was 22.2 min; in series [11], 240 min. Further, the Papp A→B in [3] was 0.5 ×10⁻⁶ cm/s.

In turn, `COC(=O)N1CCC(C(CCN2C[C@@H]3CN(C(=O)c4c(C)ncnc4C)C[C@@H]3C2)c2ccccc2)CC1` (stereo not given in full) came in with a half-inhibitory concentration (IC50) in series [1] of 102 nM.

As for `Cc1ncnc(C)c1C(=O)N1C[C@H]2CN(CCC(c3ccccc3)C3CCN(S(=O)(=O)C(C)C)CC3)C[C@H]2C1` (stereo not given in full), the IC50 in series [1] was 47 nM; in series [2] (Human immunodeficiency virus 1), 48 nM.

`Cc1ncnc(C)c1C(=O)N1C[C@H]2CN(CCC(c3cc(F)cc(F)c3)C3CCN(CC(F)F)CC3)C[C@H]2C1` (stereo not given in full): the IC50 in series [1] is 25 nM; in series [2] (Human immunodeficiency virus 1), 20 nM.

For `Cc1ncnc(C)c1C(=O)N1C[C@H]2CN(CCC(c3ccccc3)C3CCN(S(C)(=O)=O)CC3)C[C@H]2C1` (stereo in doubt; 41), the IC50 in [1] was determined as 25 nM; in series [2] it was 42 nM. Further, the Papp in the series on Caco-2 was found to be 0.5 ×10⁻⁶ cm/s.

Turning to `Cc1ncnc(C)c1C(=O)N1C[C@H]2CN(CCC(c3cc(F)cc(F)c3)C3CN(S(=O)(=O)C4CC4)C3)C[C@H]2C1` (stereo not given in full), the IC50 in series [1] is 35 nM; in [2] (Human immunodeficiency virus 1), 90 nM.

`Cc1ncnc(C)c1C(=O)N1C[C@H]2CN(CCC(c3ccccc3)C3CN(CC(F)(F)F)C3)C[C@H]2C1` (stereo not given in full) returned a half-maximal inhibitory concentration (IC50) in series [1] of more than 500 nM.

In the case of `Cc1ncnc(C)c1C(=O)N1C[C@H]2CN(CCC(c3cccc(F)c3)C3CN(S(=O)(=O)C4CC4)C3)C[C@H]2C1` (stereo not given in full), the IC50 in series [1] came to 39 nM; in [2] (Human immunodeficiency virus 1) it was 156 nM.

With `Cc1ncnc(C)c1C(=O)N1C[C@H]2CN(CCC(c3ccccc3)C3CN(C(=O)CC(C)C)C3)C[C@H]2C1` (stereo not given in full), the 50% inhibitory concentration (IC50) in [1] was more than 500 nM.

As to `Cc1ncnc(C)c1C(=O)N1C[C@H]2CN(CCC(c3ccccc3)C3CN(S(C)(=O)=O)C3)C[C@H]2C1` (stereo not given in full), the IC50 is 52 nM in series [1] and more than 625 nM in series [2] (Human immunodeficiency virus 1).

`Cc1ncnc(C)c1C(=O)N1C[C@H]2CN(CCC(c3ccccc3)C3CCN(C(=O)CC(C)C)CC3)C[C@H]2C1` (stereo not given in full) displayed an IC50 in series [1] of 68 nM. This lies in the double-digit nanomolar range.

With `Cc1ncnc(C)c1C(=O)N1C[C@H]2CN(CCC(c3ccccc3)C3CCN(S(=O)(=O)C4CCCC4)CC3)C[C@H]2C1` (stereo not given in full), the IC50 in series [1] came out at 23 nM; in series [2] (Human immunodeficiency virus 1), 59 nM.

`Cc1ncnc(C)c1C(=O)N1C[C@H]2CN(CCC(c3cccc(F)c3)C3CCN(S(=O)(=O)c4ccccc4)CC3)C[C@H]2C1` (stereo not given in full): the IC50 in series [1] turned out to be 38 nM; in [2] (Human immunodeficiency virus 1) it was 6 nM.

With `Cc1cc(C#N)nc(C)c1C(=O)N1C[C@H]2CN(CCC(c3ccccc3)C3CCN(S(C)(=O)=O)CC3)C[C@H]2C1` (stereo not given in full), in [2] (Human immunodeficiency virus 1), the IC50 came out at 4 nM. In other words, the single-digit nanomolar range.

Consider `Cc1ncnc(C)c1C(=O)N1C[C@H]2CN(CCC(c3cccc(F)c3)C3CCN(S(C)(=O)=O)CC3)C[C@H]2C1` (stereo in doubt; 35), for which the IC50 in [1] is 44 nM; in series [2] (Human immunodeficiency virus 1), 16 nM.

Regarding `Cc1ncnc(C)c1C(=O)N1C[C@H]2CN(CCC(c3ccccc3)C3CN(S(=O)(=O)C(C)C)C3)C[C@H]2C1` (stereo not given in full), the IC50 is 23 nM in series [1] and 100 nM in [2] (Human immunodeficiency virus 1).

On to `Cc1ncnc(C)c1C(=O)N1C[C@H]2CN(CCC(c3ccccc3)C3CN(S(=O)(=O)C4CCCC4)C3)C[C@H]2C1` (stereo not given in full), for which the IC50 came to 22 nM in series [1] and 31 nM in series [2] (Human immunodeficiency virus 1). For the same compound, the Papp A→B in [3] was 1.4 ×10⁻⁶ cm/s.

Take `Cc1ncnc(C)c1C(=O)N1C[C@H]2CN(CCC(c3ccccc3)C3CN(C(=O)C4CCCC4)C3)C[C@H]2C1` (stereo not given in full): in [1], half-maximal inhibition (IC50) was put at 207 nM. That is a sub-micromolar value.

As for `Cc1ncnc(C)c1C(=O)N1C[C@H]2CN(CCC(c3ccccc3)C3CCN(S(C)(=O)=O)CC3)C[C@H]2C1` (stereo in doubt; 42), the IC50 in series [1] was more than 500 nM; in series [2] it was more than 5000 nM.

Turning to `Cc1ncnc(C)c1C(=O)N1C[C@H]2CN(CCC(c3ccccc3)C3CCN(C(=O)C(C)C)CC3)C[C@H]2C1` (stereo not given in full), 72 nM corresponded to half-maximal inhibition in [1] (IC50).

Usually IC50 stands for the point on the concentration scale where inhibition reaches its midpoint. In general, Papp A→B refers to the apparent permeability from the apical to the basolateral side of a cell layer. Usually Cmax stands for the peak of the concentration-time curve. What is called IC20 is the concentration at which the effect reaches the 20% level. Lower therefore signals greater potency. The term bioavailability denotes the share of a dose that reaches the circulation, judged against a reference dose that is usually intravenous. A low value points to poor availability. The microsomal CLint is the rate of metabolic loss divided by the concentration. The half-life is the time needed for the level to fall by half in the phase considered. A word on the Papp: it is the rate of passage across a membrane or cell layer, normalised by area and donor concentration.
